# Results taken from patent US7498350B2, “Oxazolidinones as antibacterial agents” (AstraZeneca AB, priority 2002, dated 2009).
# Assays:
# Type in all cases: cell-based
# [1] = tested on: Staphylococcus aureus MRQR (methicillin resistant and quinolone resistant); test: MIC by agar dilution, Staphylococcus aureus MRQR; details: 10^4 CFU/spot, 37° C., 24 hours
# Protocol: (§1) The following results were obtained on a standard in-vitro test system. The activity is described in terms of the minimum inhibitory concentration (MIC) determined by the agar-dilution technique with an inoculum size of 10^4 CFU/spot. Typically, compounds are active in the range 0.01 to 256 μg/ml.
# (§2) Staphylococci were tested on agar, using an inoculum of 10^4 CFU/spot and an incubation temperature of 37° C. for 24 hours—standard test conditions for the expression of methicillin resistance.
# Haemophilus influenzae = test: MIC, Haemophilus influenzae (fastidious Gram negative, Mueller-Hinton broth); details: Mueller-Hinton broth with hemin and NAD, 24 hours, 37° C., 5×10^4 CFU/well
# Protocol: as §1
# (§3) Streptococci and enterococci were tested on agar supplemented with 5% defibrinated horse blood, an inoculum of 10^4 CFU/spot and an incubation temperature of 37° C. in an atmosphere of 5% carbon dioxide for 48 hours—blood is required for the growth of some of the test organisms. Fastidious Gram negative organisms were tested in Mueller-Hinton broth supplemented with hemin and NAD, grown aerobically for 24 hours at 37° C., and with an innoculum of 5×10^4 CFU/well.
# [2] = tested on: Staphylococcus aureus MSQS (methicillin sensitive and quinolone sensitive); test: MIC by agar dilution, Staphylococcus aureus MSQS; details: 10^4 CFU/spot, 37° C., 24 hours
# Protocol: as §1, §2
# [3] = tested on: Linezolid Resistant Streptococcus pneumoniae; test: MIC by agar dilution, Linezolid Resistant Streptococcus pneumoniae; details: agar with 5% defibrinated horse blood, 10^4 CFU/spot, 37° C., 5% carbon dioxide, 48 hours
# Protocol: as §1, §3
# Streptococcus pneumoniae = test: MIC by agar dilution, Streptococcus pneumoniae; details: agar with 5% defibrinated horse blood, 10^4 CFU/spot, 37° C., 5% carbon dioxide, 48 hours
# Protocol: as §1, §3
# Enterococcus faecium = test: MIC by agar dilution, Enterococcus faecium; details: agar with 5% defibrinated horse blood, 10^4 CFU/spot, 37° C., 5% carbon dioxide, 48 hours
# Protocol: as §1, §3
# Moraxella catarrhalis = test: MIC, Moraxella catarrhalis (fastidious Gram negative, Mueller-Hinton broth); details: Mueller-Hinton broth with hemin and NAD, 24 hours, 37° C., 5×10^4 CFU/well
# Protocol: as §1, §3
smiles,measurement,setting,value
"Cn1nnc(-c2ccc(-c3ccc(N4C[C@H](Cn5ccnn5)OC4=O)cc3F)cn2)n1 [Example 1, (5R)-3-(3-Fluoro-4-(6-(2-methyl-2H-tetrazol-5-yl)pyrid-3-yl)phenyl)-5-(1H-1,2,3-triazol-1-ylmethyl)-1,3-oxazolidin-2-one]",MIC,[1],0.25 µg/mL
same,MIC,Haemophilus influenzae,2 µg/mL
same,MIC,[2],0.25 µg/mL
same,MIC,[3],0.5 µg/mL
same,MIC,Streptococcus pneumoniae,< 0.06 µg/mL
same,MIC,Enterococcus faecium,0.25 µg/mL
same,MIC,Moraxella catarrhalis,0.25 µg/mL
